Key:
BRAF^WT = target: T1, BRAF^WT (Homo sapiens, UniProt P15056); assay: SelectScreen Z'-LYTE kinase activity assay; type: biochemical; conditions: 100 μM ATP
T1 construct: purchased Invitrogen (SelectScreen service)
Experimental: (§1) BRAF kinase assays were performed using the Z’-LYTE™ enzymatic assay (Invitrogen, USA). […] Titrations were performed using a 1:3 dilution. Assays were performed using SelectScreen (Invitrogen).

[1] = test system: A375 cells (BRAF^V600E monomers); assay: p-ERK inhibition by western blot; conditions: A375 cells
BRAF^V600E = BRAF^V600E (Homo sapiens, UniProt P15056, V600E); assay: SelectScreen Z'-LYTE kinase activity assay; type: biochemical; set-up: purchased Invitrogen (SelectScreen service); conditions: 100 μM ATP
Experimental: as §1

[2] = test system: RAS^MUT/BRAF^WT melanoma or lung cancer cells (SKMEL-30, SKMEL-2, CALU6); assay: ERK signaling inhibition by western blot; conditions: RAS^MUT/BRAF^WT cells, 1 h

BRAF^V600E, sequence (P15056 whole entry V600E): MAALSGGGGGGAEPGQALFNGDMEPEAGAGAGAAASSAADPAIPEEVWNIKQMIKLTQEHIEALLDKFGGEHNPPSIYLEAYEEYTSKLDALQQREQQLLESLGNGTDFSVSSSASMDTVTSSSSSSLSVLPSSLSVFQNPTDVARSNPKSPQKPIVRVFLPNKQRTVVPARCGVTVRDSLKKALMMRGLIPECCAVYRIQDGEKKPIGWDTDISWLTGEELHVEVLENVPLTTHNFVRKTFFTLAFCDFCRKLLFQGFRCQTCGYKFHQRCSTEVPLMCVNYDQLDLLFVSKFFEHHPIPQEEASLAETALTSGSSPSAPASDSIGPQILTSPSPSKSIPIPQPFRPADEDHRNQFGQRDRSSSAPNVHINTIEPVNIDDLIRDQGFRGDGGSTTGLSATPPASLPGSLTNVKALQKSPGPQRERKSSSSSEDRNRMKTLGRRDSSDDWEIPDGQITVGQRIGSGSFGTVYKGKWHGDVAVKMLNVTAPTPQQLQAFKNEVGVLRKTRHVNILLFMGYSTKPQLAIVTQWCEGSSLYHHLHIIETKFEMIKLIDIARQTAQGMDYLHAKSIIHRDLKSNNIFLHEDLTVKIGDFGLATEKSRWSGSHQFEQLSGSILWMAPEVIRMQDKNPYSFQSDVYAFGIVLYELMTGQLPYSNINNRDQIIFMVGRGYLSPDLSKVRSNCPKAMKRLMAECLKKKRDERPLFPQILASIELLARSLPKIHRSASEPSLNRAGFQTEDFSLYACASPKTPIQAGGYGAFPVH
T1 sequence (P15056 whole entry): as the sequence (P15056 whole entry V600E) above, with E600V counted along it

IC50 (BRAF^WT) [nM] | IC50 (BRAF^V600E) [nM] | Structure (SMILES) | inhibitory activity for BRAF^V600E monomers in comparison to PHI1 (in words) ([1]; 1 h) | concentration that robustly inhibits ERK signaling ([1]; 3 hrs, immunoblot) [µM] | effect on p-ERK levels (in words) [2]
598 ± 113 | 35 ± 2.8 | CCc1cc(N2CCC(NCc3ccc(NC(=O)c4ccc(C)c(C#Cc5cnc6cccnn56)c4)cc3C(F)(F)F)CC2)ncn1 [PHI2] | increased |  | 
 |  | CCCS(=O)(=O)Nc1ccc(F)c(C(=O)c2c[nH]c3ncc(-c4ccc(Cl)cc4)cc23)c1F [Vemurafenib] |  | 0.3 | enhances p-ERK levels
